Assay results taken from US11691980B2, “Liphagal analog and multi-targeted kinase inhibitor containing liphagal or analog thereof” (TOHOKU UNIVERSITY, priority 2017, dated 2023).

Tests used:
Type in all cases: biochemical
CK1y1 = target: T1, CK1y1 (Homo sapiens, UniProt Q9HCP0); assay: mobility shift assay
T1 construct: purchased Carna Biosciences

SIK = target: T2, SIK (Homo sapiens, UniProt P57059); assay: mobility shift assay
T2 construct: purchased Carna Biosciences

JAK3 = target: T3, JAK3 (Homo sapiens, UniProt P52333); assay: mobility shift assay
T3 construct: purchased Carna Biosciences

DYRK3 = target: T4, DYRK3 (Homo sapiens, UniProt O43781); assay: mobility shift assay
T4 construct: purchased Carna Biosciences
T4 sequence (O43781 whole entry): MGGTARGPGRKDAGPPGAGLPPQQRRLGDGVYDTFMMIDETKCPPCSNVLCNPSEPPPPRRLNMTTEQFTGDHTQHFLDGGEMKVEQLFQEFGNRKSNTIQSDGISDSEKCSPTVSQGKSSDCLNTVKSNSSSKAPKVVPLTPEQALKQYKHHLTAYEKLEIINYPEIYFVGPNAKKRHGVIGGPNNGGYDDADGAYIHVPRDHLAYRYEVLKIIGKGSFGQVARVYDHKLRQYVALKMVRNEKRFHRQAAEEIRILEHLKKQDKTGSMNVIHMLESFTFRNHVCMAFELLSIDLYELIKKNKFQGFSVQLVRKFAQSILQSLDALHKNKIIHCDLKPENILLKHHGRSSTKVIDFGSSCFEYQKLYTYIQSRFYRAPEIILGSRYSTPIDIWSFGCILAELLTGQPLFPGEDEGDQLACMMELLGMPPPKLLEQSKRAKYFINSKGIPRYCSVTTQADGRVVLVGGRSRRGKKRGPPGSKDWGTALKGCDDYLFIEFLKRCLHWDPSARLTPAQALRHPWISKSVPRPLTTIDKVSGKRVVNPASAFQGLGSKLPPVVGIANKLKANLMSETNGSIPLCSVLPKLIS

MELK = target: T5, MELK (Homo sapiens, UniProt Q14680); assay: mobility shift assay
T5 construct: purchased Carna Biosciences

SPHK1 = target: T6, SPHK1 (Homo sapiens, UniProt Q9NYA1); assay: mobility shift assay
T6 construct: purchased Carna Biosciences

KKε = target: T7, KKε (Homo sapiens, UniProt Q14164); assay: mobility shift assay
T7 construct: purchased Carna Biosciences

PKCα = target: T8, PKCα (Homo sapiens, UniProt P17252); assay: mobility shift assay
T8 construct: purchased Carna Biosciences

EPHA6 = target: T9, EPHA6 (Homo sapiens, UniProt Q9UF33); assay: mobility shift assay
T9 construct: purchased Carna Biosciences
T9 sequence (Q9UF33 23-1036): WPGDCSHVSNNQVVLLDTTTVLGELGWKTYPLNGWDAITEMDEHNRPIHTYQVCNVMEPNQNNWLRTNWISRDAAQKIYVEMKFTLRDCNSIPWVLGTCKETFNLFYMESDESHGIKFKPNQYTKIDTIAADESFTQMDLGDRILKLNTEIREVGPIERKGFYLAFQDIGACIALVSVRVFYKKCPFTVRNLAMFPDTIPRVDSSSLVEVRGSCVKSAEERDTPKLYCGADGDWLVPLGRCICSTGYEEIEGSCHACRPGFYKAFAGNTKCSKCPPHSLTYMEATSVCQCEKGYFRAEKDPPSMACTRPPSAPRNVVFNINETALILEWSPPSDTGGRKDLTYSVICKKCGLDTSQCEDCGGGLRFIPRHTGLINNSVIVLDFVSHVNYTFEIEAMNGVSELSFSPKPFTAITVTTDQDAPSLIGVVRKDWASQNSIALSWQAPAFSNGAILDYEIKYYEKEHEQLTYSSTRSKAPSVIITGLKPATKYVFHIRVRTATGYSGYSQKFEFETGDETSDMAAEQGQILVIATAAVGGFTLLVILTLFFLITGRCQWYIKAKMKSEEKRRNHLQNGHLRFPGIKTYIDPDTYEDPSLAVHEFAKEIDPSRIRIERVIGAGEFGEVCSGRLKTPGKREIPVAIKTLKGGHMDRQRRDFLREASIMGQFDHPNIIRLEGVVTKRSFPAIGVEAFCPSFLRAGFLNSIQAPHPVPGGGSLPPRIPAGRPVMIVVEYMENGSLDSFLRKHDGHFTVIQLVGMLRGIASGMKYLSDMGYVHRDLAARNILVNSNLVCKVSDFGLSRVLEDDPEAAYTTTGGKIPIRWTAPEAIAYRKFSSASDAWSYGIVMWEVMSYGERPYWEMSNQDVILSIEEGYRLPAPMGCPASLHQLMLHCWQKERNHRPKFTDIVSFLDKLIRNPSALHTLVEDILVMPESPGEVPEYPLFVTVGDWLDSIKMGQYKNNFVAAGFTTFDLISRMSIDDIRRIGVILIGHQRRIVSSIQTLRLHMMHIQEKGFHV

RSK4 = target: T10, RSK4 (Homo sapiens, UniProt Q9UK32); assay: mobility shift assay
T10 construct: purchased Carna Biosciences

RET(G691S) = target: T11, RET(G691S) (Homo sapiens, UniProt P07949, G691S); assay: mobility shift assay
T11 construct: purchased Carna Biosciences

CK2α1/β = target: T12, CK2α1/β (Homo sapiens, UniProt P68400); assay: mobility shift assay
T12 construct: purchased Carna Biosciences

PDGFRα = target: T13, PDGFRα (Homo sapiens, UniProt P16234); assay: mobility shift assay
T13 construct: purchased Carna Biosciences

TRKC = target: T14, TRKC (Homo sapiens, UniProt Q16288); assay: mobility shift assay
T14 construct: purchased Carna Biosciences

WNK1 = target: T15, WNK1 (Homo sapiens, UniProt Q9H4A3); assay: mobility shift assay
T15 construct: purchased Carna Biosciences

WNK2 = target: T16, WNK2 (Homo sapiens, UniProt Q9Y3S1); assay: mobility shift assay
T16 construct: purchased Carna Biosciences

PIK3α (PIK3CA/PIK3R1) = PIK3α (PIK3CA/PIK3R1) (Homo sapiens, UniProt P42336); assay: IC50 by mobility shift assay; details: Table 2, mobility shift assay; read-out: IC50 (μM), Kinase PIK3CA/PIK3RI
Protocol: The compounds obtained in Production Examples described above were each measured for its IC50 value for PIK3α (PIK3CA/PIK3R1) by mobility shift assay. The mobility shift assay is a method involving separating and quantifying a substrate and a phosphorylated substrate on the basis of mobility in a capillary. Each compound was mixed at various concentrations with an assay buffer (20 mM HEPES, 2 mM DTT, 25 μM sodium cholate, 75 mM NaCl, 20 μM cantharidine) together with 21 nM PI3K, 1,000 nM phosphatidyl inositol, 50 μM ATP, and 5 mM MgCl, and the mixture was subjected to a reaction at room temperature for 5 hours, followed by the mobility shift assay. The test was repeated twice. The enzymatic reaction was assessed on the basis of a product ratio (P/(P+S)) calculated from the height of a substrate peptide peak (S) and the height of a phosphorylated peptide peak (P). An inhibition rate was calculated from a signal obtained when each compound was added, with the average signal of a control containing all reaction components being defined as 0% inhibition and the average signal of a background (no enzyme added) being defined as 100% inhibition.
The compounds produced in Production Examples described above were each assessed for its inhibitory activity against CDK7, PIM2, and PI3K by mobility shift assay. In addition, a combination showing the highest inhibitory activity against each kinase is indicated by italics.

NPM1-ALK = target: T17, NPM1-ALK (Homo sapiens, UniProt Q9UM73); assay: mobility shift assay
T17 construct: purchased Carna Biosciences; the other entry of the earlier key: NPM1 (P06748, Nucleophosmin)

PAK4 = target: T18, PAK4 (Homo sapiens, UniProt O96013); assay: mobility shift assay
T18 construct: purchased Carna Biosciences

CDK3/CycE1 = target: T19, CDK3/CycE1 (Homo sapiens, UniProt Q00526); assay: mobility shift assay
T19 construct: purchased Carna Biosciences

ACK = target: T20, ACK (Homo sapiens, UniProt Q07912); assay: mobility shift assay
T20 construct: purchased Carna Biosciences

TRKA = target: T21, TRKA (Homo sapiens, UniProt P04629); assay: mobility shift assay
T21 construct: purchased Carna Biosciences

BRK = target: T22, BRK (Homo sapiens, UniProt Q13882); assay: mobility shift assay
T22 construct: purchased Carna Biosciences

CRIK = target: T23, CRIK (Homo sapiens, UniProt O14578); assay: mobility shift assay
T23 construct: purchased Carna Biosciences
T23 sequence (O14578 whole entry): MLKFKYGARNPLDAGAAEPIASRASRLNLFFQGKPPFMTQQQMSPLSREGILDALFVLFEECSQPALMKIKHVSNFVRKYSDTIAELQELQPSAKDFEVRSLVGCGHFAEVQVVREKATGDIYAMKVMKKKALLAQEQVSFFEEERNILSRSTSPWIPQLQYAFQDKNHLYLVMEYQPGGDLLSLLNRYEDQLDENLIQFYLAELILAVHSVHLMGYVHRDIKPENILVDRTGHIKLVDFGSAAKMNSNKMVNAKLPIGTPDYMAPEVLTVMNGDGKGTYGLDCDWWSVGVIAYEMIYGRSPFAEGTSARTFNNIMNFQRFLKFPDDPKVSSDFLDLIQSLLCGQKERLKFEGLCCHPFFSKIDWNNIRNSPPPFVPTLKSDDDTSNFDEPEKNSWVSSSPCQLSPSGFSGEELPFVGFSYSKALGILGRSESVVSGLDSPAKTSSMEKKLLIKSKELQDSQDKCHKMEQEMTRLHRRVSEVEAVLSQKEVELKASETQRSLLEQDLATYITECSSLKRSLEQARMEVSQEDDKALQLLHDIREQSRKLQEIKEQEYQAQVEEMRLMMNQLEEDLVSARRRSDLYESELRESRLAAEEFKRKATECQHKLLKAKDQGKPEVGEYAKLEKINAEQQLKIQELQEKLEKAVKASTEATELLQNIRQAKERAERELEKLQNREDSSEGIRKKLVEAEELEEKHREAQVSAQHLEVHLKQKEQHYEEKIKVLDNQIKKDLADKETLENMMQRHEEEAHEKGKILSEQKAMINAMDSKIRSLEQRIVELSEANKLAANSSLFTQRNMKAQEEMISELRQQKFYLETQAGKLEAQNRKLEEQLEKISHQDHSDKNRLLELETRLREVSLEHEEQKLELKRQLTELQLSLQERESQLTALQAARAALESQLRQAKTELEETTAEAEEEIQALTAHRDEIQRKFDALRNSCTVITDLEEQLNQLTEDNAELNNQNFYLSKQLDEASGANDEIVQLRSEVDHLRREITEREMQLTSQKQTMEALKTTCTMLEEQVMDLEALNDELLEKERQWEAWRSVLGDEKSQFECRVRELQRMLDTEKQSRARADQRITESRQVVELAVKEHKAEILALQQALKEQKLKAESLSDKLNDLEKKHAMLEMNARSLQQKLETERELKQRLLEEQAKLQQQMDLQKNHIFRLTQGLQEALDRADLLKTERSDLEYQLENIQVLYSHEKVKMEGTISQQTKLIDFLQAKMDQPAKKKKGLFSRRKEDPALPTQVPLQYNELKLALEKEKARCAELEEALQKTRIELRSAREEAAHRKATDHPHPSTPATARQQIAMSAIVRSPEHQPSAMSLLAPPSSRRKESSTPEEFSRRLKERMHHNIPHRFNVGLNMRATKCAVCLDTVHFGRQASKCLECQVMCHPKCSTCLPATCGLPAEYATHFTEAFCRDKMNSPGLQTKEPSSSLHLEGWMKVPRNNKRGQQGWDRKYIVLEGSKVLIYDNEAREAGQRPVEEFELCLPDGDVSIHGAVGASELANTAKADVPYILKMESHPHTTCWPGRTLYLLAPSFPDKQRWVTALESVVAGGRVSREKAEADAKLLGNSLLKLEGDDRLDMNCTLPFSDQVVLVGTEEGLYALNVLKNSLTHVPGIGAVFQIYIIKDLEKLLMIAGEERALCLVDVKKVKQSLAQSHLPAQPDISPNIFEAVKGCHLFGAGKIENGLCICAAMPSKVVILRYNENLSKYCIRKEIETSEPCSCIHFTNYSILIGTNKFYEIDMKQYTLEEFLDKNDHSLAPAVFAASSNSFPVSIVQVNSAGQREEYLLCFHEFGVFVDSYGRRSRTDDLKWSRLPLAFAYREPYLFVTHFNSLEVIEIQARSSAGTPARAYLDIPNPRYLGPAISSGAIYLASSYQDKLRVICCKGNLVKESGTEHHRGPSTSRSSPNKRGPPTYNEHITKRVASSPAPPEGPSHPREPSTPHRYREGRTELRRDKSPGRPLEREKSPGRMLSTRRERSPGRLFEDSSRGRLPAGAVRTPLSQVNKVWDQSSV

PKCη = target: T24, PKCη (Homo sapiens, UniProt P24723); assay: mobility shift assay
T24 construct: purchased Carna Biosciences
T24 sequence (P24723 whole entry): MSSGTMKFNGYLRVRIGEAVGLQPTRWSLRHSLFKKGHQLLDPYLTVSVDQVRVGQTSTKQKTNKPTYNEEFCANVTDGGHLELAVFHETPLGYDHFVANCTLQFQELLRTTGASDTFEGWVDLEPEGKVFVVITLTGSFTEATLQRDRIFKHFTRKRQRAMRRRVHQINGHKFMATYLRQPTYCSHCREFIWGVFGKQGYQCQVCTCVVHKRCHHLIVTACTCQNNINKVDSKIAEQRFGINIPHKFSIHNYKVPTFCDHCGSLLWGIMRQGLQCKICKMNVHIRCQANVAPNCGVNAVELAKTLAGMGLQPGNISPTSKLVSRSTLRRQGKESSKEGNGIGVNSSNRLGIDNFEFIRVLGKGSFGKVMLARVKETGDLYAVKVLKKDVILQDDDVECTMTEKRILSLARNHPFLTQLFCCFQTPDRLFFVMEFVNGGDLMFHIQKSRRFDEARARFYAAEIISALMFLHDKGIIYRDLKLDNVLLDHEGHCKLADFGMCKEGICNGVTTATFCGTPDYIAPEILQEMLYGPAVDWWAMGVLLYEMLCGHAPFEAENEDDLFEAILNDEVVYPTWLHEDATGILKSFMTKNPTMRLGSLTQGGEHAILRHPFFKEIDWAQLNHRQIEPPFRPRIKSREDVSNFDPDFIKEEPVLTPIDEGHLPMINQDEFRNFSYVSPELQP

LATS2 = target: T25, LATS2 (Homo sapiens, UniProt Q9NRM7); assay: mobility shift assay
T25 construct: purchased Carna Biosciences

MNK1 = target: T26, MNK1 (Homo sapiens, UniProt Q9BUB5); assay: mobility shift assay
T26 construct: purchased Carna Biosciences
T26 sequence (Q9BUB5 whole entry): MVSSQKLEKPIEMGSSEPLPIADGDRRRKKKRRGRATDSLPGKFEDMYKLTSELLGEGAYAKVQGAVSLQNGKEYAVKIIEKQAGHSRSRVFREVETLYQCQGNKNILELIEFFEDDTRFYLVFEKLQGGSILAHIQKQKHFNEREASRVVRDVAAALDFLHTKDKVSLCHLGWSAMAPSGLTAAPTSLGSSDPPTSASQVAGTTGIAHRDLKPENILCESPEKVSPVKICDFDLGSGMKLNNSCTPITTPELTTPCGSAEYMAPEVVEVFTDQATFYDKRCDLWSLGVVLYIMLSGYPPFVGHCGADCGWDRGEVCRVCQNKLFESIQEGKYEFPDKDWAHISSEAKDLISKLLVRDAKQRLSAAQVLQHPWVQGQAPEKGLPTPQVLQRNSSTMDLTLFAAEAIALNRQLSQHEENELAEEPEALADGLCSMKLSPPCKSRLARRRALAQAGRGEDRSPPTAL

PIM 1 = target: T27, PIM 1 (Homo sapiens, UniProt P11309); assay: mobility shift assay
T27 construct: purchased Carna Biosciences
T27 sequence (P11309 whole entry): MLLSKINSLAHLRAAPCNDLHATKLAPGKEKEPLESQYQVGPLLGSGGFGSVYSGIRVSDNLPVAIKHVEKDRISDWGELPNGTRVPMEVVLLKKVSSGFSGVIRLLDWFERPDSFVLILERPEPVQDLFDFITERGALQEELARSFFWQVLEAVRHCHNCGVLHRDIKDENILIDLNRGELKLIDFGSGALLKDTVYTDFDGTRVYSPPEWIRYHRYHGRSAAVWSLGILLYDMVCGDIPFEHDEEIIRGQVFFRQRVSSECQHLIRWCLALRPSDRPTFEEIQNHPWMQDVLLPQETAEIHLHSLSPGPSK

HPK4 = target: T28, HPK4 (Homo sapiens, UniProt Q8NE63); assay: mobility shift assay
T28 construct: purchased Carna Biosciences

ROCK1 = target: T29, ROCK1 (Homo sapiens, UniProt Q13464); assay: mobility shift assay
T29 construct: purchased Carna Biosciences

HER4 = target: T30, HER4 (Homo sapiens, UniProt Q15303); assay: mobility shift assay
T30 construct: purchased Carna Biosciences

Haspin = target: T31, Haspin (Homo sapiens, UniProt Q8TF76); assay: mobility shift assay
T31 construct: purchased Carna Biosciences

EPHA7 = target: T32, EPHA7 (Homo sapiens, UniProt Q15375); assay: mobility shift assay
T32 construct: purchased Carna Biosciences

PBK = target: T33, PBK (Homo sapiens, UniProt Q96KB5); assay: mobility shift assay
T33 construct: purchased Carna Biosciences

## C[C@@H]1CC[C@H]2C(C)(C)CCC[C@]2(C)c2c1oc1c(C=O)c(O)c(O)cc21 [LG-1, liphagal]
CK1y1
  inhibition at 10 µM: 2.8%
SIK
  inhibition at 10 µM: 33.7%
JAK3
  inhibition at 10 µM: -7.2%
DYRK3
  inhibition at 10 µM: 39.2%
MELK
  inhibition at 10 µM: 49.2%
SPHK1
  inhibition at 10 µM: 59.8%
KKε
  inhibition at 10 µM: -6.3%
PKCα
  inhibition at 10 µM: -8%
EPHA6
  inhibition at 10 µM: 23%
RSK4
  inhibition at 10 µM: 7.4%
RET(G691S)
  inhibition at 10 µM: 14.8%
CK2α1/β
  inhibition at 10 µM: -0.9%
PDGFRα
  inhibition at 10 µM: 8.2%
TRKC
  inhibition at 10 µM: 11.3%
WNK1
  inhibition at 10 µM: 17.3%
WNK2
  inhibition at 10 µM: 20.7%
PIK3α (PIK3CA/PIK3R1)
  IC50: 4.12 µM
NPM1-ALK
  inhibition at 10 µM: 2.3%
PAK4
  inhibition at 10 µM: -24.7%
CDK3/CycE1
  inhibition at 10 µM: 40.1%
ACK
  inhibition at 10 µM: 8.4%
TRKA
  inhibition at 10 µM: 36.4%
BRK
  inhibition at 10 µM: 52.5%
CRIK
  inhibition at 10 µM: -0.8%
PKCη
  inhibition at 10 µM: -34.3%
LATS2
  inhibition at 10 µM: -0.6%
MNK1
  inhibition at 10 µM: 5.3%
PIM 1
  inhibition at 10 µM: 50.3%
HPK4
  inhibition at 10 µM: 18.2%
ROCK1
  inhibition at 10 µM: 0.5%
HER4
  inhibition at 10 µM: 17.9%
Haspin
  inhibition at 10 µM: 3.3%
EPHA7
  inhibition at 10 µM: 8.7%
PBK
  inhibition at 10 µM: 13%
